# Source: PubChem BioAssay (NCI)
#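 A five-concentration, 48-hour dose response in 96-well plates underlies each endpoint, interpolated linearly between surrounding concentrations. GI50 is the concentration that inhibits growth by half. TGI denotes the concentration required for complete inhibition of growth.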
# Assays:
# Assay in all cases: growth of human tumour cells (NCI), 48 h
# [1] = tested on: M14 melanoma
# [2] = tested on: SF-539 CNS
# [3] = tested on: 786-0 renal
# [4] = tested on: MDA-MB-231 breast
# [5] = tested on: MCF7 breast
# [6] = tested on: SK-MEL-5 melanoma
# [7] = tested on: CCRF-CEM leukemia
# [8] = tested on: COLO 205 colon
# [9] = tested on: SNB-75 CNS
# [10] = tested on: BT-549 breast
# [11] = tested on: HT29 colon
# [12] = tested on: LOX IMVI melanoma
# [13] = tested on: HOP-92 NSCLC
# [14] = tested on: SW-620 colon
# [15] = tested on: SK-OV-3 ovarian
# [16] = tested on: PC-3 prostate
# [17] = tested on: MALME-3M melanoma
# [18] = tested on: HL-60(TB) leukemia
# [19] = tested on: KM12 colon
# [20] = tested on: SF-295 CNS
# [21] = tested on: MOLT-4 leukemia
# [22] = tested on: HOP-62 NSCLC
# [23] = tested on: SF-268 CNS
# [24] = tested on: OVCAR-5 ovarian
# [25] = tested on: RPMI-8226 leukemia
# [26] = tested on: NCI-H460 lung
# [27] = tested on: CAKI-1 renal
# [28] = tested on: UACC-62 melanoma
# [29] = tested on: NCI-H23 lung
# [30] = tested on: U251 CNS
# [31] = tested on: SK-MEL-28 melanoma
# [32] = tested on: A498 renal
# [33] = tested on: HS 578T breast
# [34] = tested on: SNB-19 CNS
# [35] = tested on: HCT-15 colon
# [36] = tested on: UACC-257 melanoma
# [37] = tested on: T-47D breast
# [38] = tested on: UO-31 renal
# [39] = tested on: K-562 leukemia
# [40] = tested on: NCI/ADR-RES ovarian
# [41] = tested on: OVCAR-3 ovarian
# [42] = tested on: RXF 393 renal
# [43] = tested on: SN12C renal
# [44] = tested on: OVCAR-4 ovarian
# [45] = tested on: SK-MEL-2 melanoma
# [46] = tested on: A549 NSCLC
# [47] = tested on: ACHN renal
# [48] = tested on: NCI-H522 lung
# [49] = tested on: OVCAR-8 ovarian
# [50] = tested on: IGROV1 ovarian
# [51] = tested on: HCC-2998 colon
# [52] = tested on: NCI-H226 lung
# [53] = tested on: TK-10 renal
# [54] = tested on: HCT-116 colon
# [55] = tested on: DU-145 prostate
# [56] = tested on: MDA-MB-435
# [57] = tested on: EKVX NSCLC
smiles,measurement,setting,value
COc1cc(C[C@H]2COC(=O)[C@]2(O)Cc2ccc(OCc3ccccc3)c(OC)c2)ccc1OCc1ccccc1,GI50,[1],47 µM
same,TGI,[1],> 100 µM
same,GI50,[2],37.6 µM
same,TGI,[2],> 100 µM
same,GI50,[3],85.4 µM
same,TGI,[3],> 100 µM
same,GI50,[4],> 100 µM
same,TGI,[4],> 100 µM
same,GI50,[5],8.17 µM
same,TGI,[5],> 100 µM
same,GI50,[6],13.7 µM
same,TGI,[6],37.1 µM
same,GI50,[7],> 100 µM
same,TGI,[7],> 100 µM
same,GI50,[8],5.16 µM
same,TGI,[8],24.1 µM
same,GI50,[9],> 100 µM
same,TGI,[9],> 100 µM
same,GI50,[10],28.1 µM
same,TGI,[10],> 100 µM
same,GI50,[11],4.16 µM
same,TGI,[11],> 100 µM
same,GI50,[12],35.9 µM
same,TGI,[12],> 100 µM
same,GI50,[13],> 100 µM
same,TGI,[13],> 100 µM
same,GI50,[14],> 100 µM
same,TGI,[14],> 100 µM
same,GI50,[15],> 100 µM
same,TGI,[15],> 100 µM
same,GI50,[16],74.7 µM
same,TGI,[16],> 100 µM
same,GI50,[17],8.33 µM
same,TGI,[17],87.3 µM
same,GI50,[18],28 µM
same,TGI,[18],> 100 µM
same,GI50,[19],7.3 µM
same,TGI,[19],> 100 µM
same,GI50,[20],18.9 µM
same,TGI,[20],> 100 µM
same,GI50,[21],6.2 µM
same,TGI,[21],> 100 µM
same,GI50,[22],> 100 µM
same,TGI,[22],> 100 µM
same,GI50,[23],73.7 µM
same,TGI,[23],> 100 µM
same,GI50,[24],> 100 µM
same,TGI,[24],> 100 µM
same,GI50,[25],71.9 µM
same,TGI,[25],> 100 µM
same,GI50,[26],9.77 µM
same,TGI,[26],> 100 µM
same,GI50,[27],19.4 µM
same,TGI,[27],> 100 µM
same,GI50,[28],40.5 µM
same,TGI,[28],> 100 µM
same,GI50,[29],30.6 µM
same,TGI,[29],> 100 µM
same,GI50,[30],23.9 µM
same,TGI,[30],> 100 µM
same,GI50,[31],> 100 µM
same,TGI,[31],> 100 µM
same,GI50,[32],27.5 µM
same,TGI,[32],99.1 µM
same,GI50,[33],42.9 µM
same,TGI,[33],> 100 µM
same,GI50,[34],> 100 µM
same,TGI,[34],> 100 µM
same,GI50,[35],19 µM
same,TGI,[35],> 100 µM
same,GI50,[36],16 µM
same,TGI,[36],> 100 µM
same,GI50,[37],12.1 µM
same,TGI,[37],> 100 µM
same,GI50,[38],35.5 µM
same,TGI,[38],> 100 µM
same,GI50,[39],62.3 µM
same,TGI,[39],> 100 µM
same,GI50,[40],5.18 µM
same,TGI,[40],> 100 µM
same,GI50,[41],> 100 µM
same,TGI,[41],> 100 µM
same,GI50,[42],40.3 µM
same,TGI,[42],> 100 µM
same,GI50,[43],12.5 µM
same,TGI,[43],> 100 µM
same,GI50,[44],> 100 µM
same,TGI,[44],> 100 µM
same,GI50,[45],> 100 µM
same,TGI,[45],> 100 µM
same,GI50,[46],7.13 µM
same,TGI,[46],> 100 µM
same,GI50,[47],26.1 µM
same,TGI,[47],> 100 µM
same,GI50,[48],65.2 µM
same,TGI,[48],> 100 µM
same,GI50,[49],12.3 µM
same,TGI,[49],> 100 µM
same,GI50,[50],> 100 µM
same,TGI,[50],> 100 µM
same,GI50,[51],26.5 µM
same,TGI,[51],> 100 µM
same,GI50,[52],33.7 µM
same,TGI,[52],> 100 µM
same,GI50,[53],26.7 µM
same,TGI,[53],> 100 µM
same,GI50,[54],16.8 µM
same,TGI,[54],> 100 µM
same,GI50,[55],85.9 µM
same,TGI,[55],> 100 µM
same,GI50,[56],20.9 µM
same,TGI,[56],> 100 µM
same,GI50,[57],24.2 µM
same,TGI,[57],> 100 µM
